Patent publication US9809598B2 (Merck Patent GmbH, priority 2014, dated 2017)
Where two headings read alike, the source gives them in different places.

Tests used:
[1] = system: Tankyrases; conditions: read-out: EC50 [M] TNKS cellular assay; DLD1 cells, 24 hours, Axin2 increase
[2] = target: T1, TNKS2 (Homo sapiens, UniProt Q9H2K2); assay: TNKS2 activity ELISA (autoparsylation assay); format: biochemical
T1 construct: GST-tagged Tnks-2 (873-1166 aa, prepared in-house); made in house
Method: (§1) Description of the TNKS1 and TNKS2 ELISA Assay
(§2) Biochemical Activity Testing of TNKS 1 and 2: Activity ELISA (Autoparsylation Assay)
(§3) For analysis of autoparsylation activity of TNKS 1 and 2 an activity ELISA iss performed: In the first step GST tagged TNKS is captured on a Glutathione coated plate. Then the activity assay with biotinylated NAD is performed in the absence/presence of the compounds. During the enzymatic reaction GST tagged TNKS transfers biotinylated ADP-ribose to itself from biotinylated NAD as co-substrate. For the detection streptavidin-HRP conjugate is added that binds to the biotinylated TNKS and is thereby captured to the plates. The amount of biotinylated resp. autoparsylated TNKS is detected with a luminescence substrate for HRP. The level of the luminescence signal correlats directly with the amount of autoparsylated TNKS and therefore with activity of TNKS.
(§4) The activity ELISA is performed in 384 well Glutathione coated microtiter plates (Express capture Glutathione coated plate, Biocat, Heidelberg, Germany). The plates are pre-equilibrated with PBS. […] The plates are washed 3 times with PBS-Tween-20. The wells are blocked by incubation at room temperature for 20 minutes with 50 μl blocking buffer (PBS, 0.05% Tween-20, 0.5% BSA). Afterwards the plates are washed 3 times with PBS-Tween-20. […] The reaction is stopped by 3 times washing with PBS-Tween-20. For the detection 50 μl of 20 ng/μl Streptavidin, HRP conjugate (MoBiTec, Göttingen, Germany) in PBS/0.05% Tween-20/0.01% BSA are added and the plates are incubated for 30 minutes at room temperature. After three times washing with PBS-Tween-20 50 μl of SuperSignal ELISA Femto Maximum sensitivity substrate solution (ThermoFisherScientific (Pierce), Bonn, Germany) are added. Following a 1 minute incubation at room temperature luminescence signals are measured with an Envision multimode reader (Perkin Elmer LAS Germany GmbH) at 700 nm. The full value used is the inhibitor-free reaction. […] The inhibitory values (IC50) are determined using either the program Symyx Assay Explorer® or Condosseo® from GeneData.

[3] = target: T2, TNKS1 (Homo sapiens, UniProt O95271); assay: TNKS1 activity ELISA (autoparsylation assay); format: biochemical; conditions: GST-tagged Tnks-1 (1023-1327 aa)
T2 construct: GST-tagged Tnks-1 (1023-1327 aa, prepared in-house); made in house
Method: as §1, §2, §3, §4

[4] = target: T3, PARP-1 (Homo sapiens, UniProt P09874); assay: PARP-1 autoparsylation assay (HTRF); format: biochemical; conditions: His-tagged Parp-1, autoparsylation HTRF
T3 construct: purchased Enzo Life Sciences GmbH, Lörrach, Germany
Excerpt: Description of the PARP1 Assay
Biochemical Activity Testing of PARP-1: Autoparsylation Assay
The autoparsylation assay is run in two steps: the enzymatic reaction in which His-tagged Parp-1 transfers biotinylated ADP-ribose/ADP-ribose to itself from biotinylated NAD/NAD as co-substrate and the detection reaction where a time resolved FRET between cryptate labelled anti-His antibody bound to the His tag of the enzyme and Xlent® labelled-streptavidin bound the biotin-parsylation residue is analysed. The autoparsylation activity is detectable directly via the increase in HTRF signal.
The autoparsylation assay is performed as 384-well HTRF® (Cisbio, Codolet, France) assay format in Greiner low volume nb 384-well microtiter plates. […] The ratio of the emission signals is determined. The full value used is the inhibitor-free reaction. The pharmacological zero value used is Olaparib (LClabs, Woburn, US) in a final concentration of 1 μM. The inhibitory values (IC50) are determined using either the program Symyx Assay Explorer® or Condosseo® from GeneData.

[5] = GST-tagged Tnks-2 (873-1166 aa), read-out: IC50 [M] TNKS2 ELISA

T1 sequence (Q9H2K2 873-1166): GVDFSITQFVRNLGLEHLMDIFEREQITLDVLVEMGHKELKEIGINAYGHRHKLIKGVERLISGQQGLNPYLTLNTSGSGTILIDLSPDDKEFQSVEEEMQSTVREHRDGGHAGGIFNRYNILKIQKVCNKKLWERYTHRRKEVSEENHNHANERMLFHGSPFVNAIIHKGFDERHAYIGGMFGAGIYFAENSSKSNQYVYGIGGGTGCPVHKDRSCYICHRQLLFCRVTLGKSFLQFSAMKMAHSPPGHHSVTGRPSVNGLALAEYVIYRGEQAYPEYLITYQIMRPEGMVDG
T2 sequence (O95271 1023-1327): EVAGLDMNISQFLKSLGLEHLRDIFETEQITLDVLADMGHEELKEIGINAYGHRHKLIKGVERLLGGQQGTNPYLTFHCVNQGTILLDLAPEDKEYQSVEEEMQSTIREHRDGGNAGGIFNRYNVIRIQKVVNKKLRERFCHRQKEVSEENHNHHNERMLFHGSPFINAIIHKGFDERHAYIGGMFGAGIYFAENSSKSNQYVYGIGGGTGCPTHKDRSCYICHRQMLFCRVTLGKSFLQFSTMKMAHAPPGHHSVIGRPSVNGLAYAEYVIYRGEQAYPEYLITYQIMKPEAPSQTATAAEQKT
T3 sequence (P09874 whole entry): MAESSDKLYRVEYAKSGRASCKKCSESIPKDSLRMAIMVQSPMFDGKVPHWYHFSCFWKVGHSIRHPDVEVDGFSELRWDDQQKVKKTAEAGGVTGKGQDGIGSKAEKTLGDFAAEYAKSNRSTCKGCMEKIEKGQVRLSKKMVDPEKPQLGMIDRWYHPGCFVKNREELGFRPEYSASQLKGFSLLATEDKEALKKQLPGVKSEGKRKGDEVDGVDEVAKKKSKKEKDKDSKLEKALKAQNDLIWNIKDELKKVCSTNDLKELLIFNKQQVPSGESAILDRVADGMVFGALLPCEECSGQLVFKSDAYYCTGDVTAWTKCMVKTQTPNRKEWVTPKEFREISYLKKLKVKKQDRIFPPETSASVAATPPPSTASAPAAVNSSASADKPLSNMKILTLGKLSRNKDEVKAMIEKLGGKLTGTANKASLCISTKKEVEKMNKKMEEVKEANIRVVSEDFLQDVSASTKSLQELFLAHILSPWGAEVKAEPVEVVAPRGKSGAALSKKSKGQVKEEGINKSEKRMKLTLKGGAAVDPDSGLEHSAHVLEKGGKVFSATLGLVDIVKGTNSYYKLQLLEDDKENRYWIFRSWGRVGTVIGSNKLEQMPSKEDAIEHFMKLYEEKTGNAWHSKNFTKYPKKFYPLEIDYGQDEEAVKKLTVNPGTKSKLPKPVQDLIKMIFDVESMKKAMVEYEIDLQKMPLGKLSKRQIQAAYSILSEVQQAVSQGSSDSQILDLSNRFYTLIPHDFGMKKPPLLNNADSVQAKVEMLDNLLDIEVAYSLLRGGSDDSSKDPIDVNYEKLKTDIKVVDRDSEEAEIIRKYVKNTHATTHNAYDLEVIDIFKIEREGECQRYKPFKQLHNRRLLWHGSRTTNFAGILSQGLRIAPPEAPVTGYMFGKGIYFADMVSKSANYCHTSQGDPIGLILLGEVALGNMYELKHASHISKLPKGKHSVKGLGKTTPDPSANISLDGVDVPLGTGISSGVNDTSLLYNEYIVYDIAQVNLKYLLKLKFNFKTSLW

COc1ccc(C(=O)C2CCN(C(=O)CCCc3cn4c(C)ccc4c(=O)[nH]3)CC2)cc1C [Compound C3, 3-{4-[4-(4-Methoxy-3-methyl-benzoyl)-piperidin-1-yl]-4-oxo-butyl}-6-methyl-2H-pyrrolo[1,2-a]pyrazin-1-one]
EC50 [1]: 2.9e-10 M
IC50 [2, 5]: 1.7e-10 M
IC50 [3]: 0.14 nM
IC50 [4]: 820 nM

N#Cc1ccc(OC2CCN(C(=O)CCCc3cn4cccc4c(=O)[nH]3)CC2)cc1 [Compound C5, 4-{1-[4-(1-Oxo-1,2-dihydro-pyrrolo[1,2-a]pyrazin-3-yl)-butyryl]-piperidin-4-yloxy}-benzonitrile]
EC50 [1]: 1.2e-07 M
IC50 [2, 5]: 8.8e-09 M
IC50 [3]: 0.13 nM
IC50 [4]: 4300 nM

O=C(CCCc1cn2cccc2c(=O)[nH]1)N1CCC(c2nnc(-c3ccccc3)o2)CC1 [Compound C6, 3-{4-Oxo-4-[4-(5-phenyl-[1,3,4]oxadiazol-2-yl)-piperidin-1-yl]-butyl}-2H-pyrrolo[1,2-a]pyrazin-1-one]
EC50 [1]: 2.8e-08 M
IC50 [2, 5]: 1.3e-09 M
IC50 [3]: 1.9 nM
IC50 [4]: 3700 nM

Cc1ccc2c(=O)[nH]c(CCCC(=O)N3CCC(Oc4ccc(C#N)cc4)CC3)cn12 [Compound C7, 4-{1-[4-(6-Methyl-1-oxo-1,2-dihydro-pyrrolo[1,2-a]pyrazin-3-yl)-butyryl]-piperidin-4-yloxy}-benzonitrile]
EC50 [1]: 4.7e-08 M
IC50 [2, 5]: 2e-09 M
IC50 [3]: 2.6 nM
IC50 [4]: 1800 nM

COc1ccc(C(=O)C2CCN(C(=O)CCCc3cn4cc(C)cc4c(=O)[nH]3)CC2)cc1 [Compound C8, 3-{4-[4-(4-Methoxy-benzoyl)-piperidin-1-yl]-4-oxo-butyl}-7-methyl-2H-pyrrolo[1,2-a]pyrazin-1-one]
EC50 [1]: 2.8e-09 M
IC50 [2, 5]: 1.6e-10 M
IC50 [3]: < 0.1 nM
IC50 [4]: 2900 nM

COc1ccc(C(=O)C2CCN(C(=O)CCCc3cn4c(Cl)ccc4c(=O)[nH]3)CC2)cc1 [Compound C11, 6-Chloro-3-{4-[4-(4-methoxy-benzoyl)-piperidin-1-yl]-4-oxo-butyl}-2H-pyrrolo[1,2-a]pyrazin-1-one]
EC50 [1]: 9e-10 M
IC50 [2, 5]: 1.6e-10 M
IC50 [3]: 0.14 nM
IC50 [4]: 2700 nM

COc1ccc(C(=O)C2CCN(C(=O)CCCc3cn4cccc4c(=O)[nH]3)CC2)cn1 [Compound C15, 3-{4-[4-(6-Methoxy-pyridine-3-carbonyl)-piperidin-1-yl]-4-oxo-butyl}-2H-pyrrolo[1,2-a]pyrazin-1-one]
EC50 [1]: 1.5e-09 M
IC50 [2, 5]: 1.7e-10 M
IC50 [3]: 0.23 nM
IC50 [4]: 1700 nM

Cn1cc(C(=O)C2CCN(C(=O)CCCc3cn4cccc4c(=O)[nH]3)CC2)cn1 [Compound C22, 3-{4-[4-(1-Methyl-1H-pyrazole-4-carbonyl)-piperidin-1-yl]-4-oxo-butyl}-2H-pyrrolo[1,2-a]pyrazin-1-one]
EC50 [1]: 4.5e-09 M
IC50 [2, 5]: 3e-10 M
IC50 [3]: 0.25 nM
IC50 [4]: 5200 nM

COc1ccc(C(=O)C2CCN(C(=O)CCCc3cn4c(C)cnc4c(=O)[nH]3)CC2)cc1 [Compound C32, 6-{4-[4-(4-Methoxybenzoyl)-1-piperidyl]-4-oxo-butyl}-3-methyl-7H-imidazo[1,2-a]pyrazin-8-one]
IC50 [2, 5]: 1.4e-10 M
IC50 [3]: 0.12 nM
IC50 [4]: 17000 nM

COc1ccc(C(=O)C2CCN(C(=O)CCCc3cn4c(C)ncc4c(=O)[nH]3)CC2)cc1 [Compound C33, 6-{4-[4-(4-Methoxy-benzoyl)-piperidin-1-yl]-4-oxo-butyl}-3-methyl-7H-imidazo[1,5-a]pyrazin-8-one]
EC50 [1]: 1.5e-09 M
IC50 [2, 5]: 1.2e-10 M
IC50 [3]: 0.16 nM
IC50 [4]: 5500 nM

COc1ccc(C(=O)C2CCN(C(=O)CCCc3nc4c(C)scc4c(=O)[nH]3)CC2)cc1 [Compound C34, 2-{4-[4-(4-Methoxy-benzoyl)-piperidin-1-yl]-4-oxo-butyl}-7-methyl-3H-thieno[3,4-d]pyrimidin-4-one]
EC50 [1]: 4.8e-09 M
IC50 [2, 5]: 3.3e-10 M
IC50 [3]: 0.54 nM
IC50 [4]: 1100 nM

COc1ccc(C(=O)C2CCN(C(=O)CCCc3nc4c(C)csc4c(=O)[nH]3)CC2)cc1 [Compound C35, 2-{4-[4-(4-Methoxy-benzoyl)-piperidin-1-yl]-4-oxo-butyl}-7-methyl-3H-thieno-[3,2-d]pyrimidin-4-one]
EC50 [1]: 4.2e-10 M
IC50 [2, 5]: 1.1e-10 M
IC50 [3]: 0.19 nM
IC50 [4]: 130 nM

COc1ccc(C(=O)C2CCN(C(=O)CCCc3nn4cccc4c(=O)[nH]3)CC2)cc1 [Compound C36, 2-{4-[4-(4-Methoxy-benzoyl)-piperidin-1-yl]-4-oxo-butyl}-3H-pyrrolo[2,1-f][1,2,4]triazin-4-one]
EC50 [1]: 4.1e-09 M
IC50 [2, 5]: 2.8e-10 M
IC50 [3]: 0.39 nM
IC50 [4]: 3500 nM

COc1ccc(C(=O)C2CCN(C(=O)CCCc3nn4c(C)ccc4c(=O)[nH]3)CC2)cc1 [Compound C37, 2-{4-[4-(4-Methoxybenzoyl)-piperidin-1-yl]-4-oxo-butyl}-7-methyl-3H-pyrrolo[2,1-f][1,2,4]triazin-4-one]
EC50 [1]: 1e-09 M
IC50 [2, 5]: < 1e-10 M
IC50 [3]: < 0.1 nM
IC50 [4]: 620 nM

COc1ccc(C(=O)C2CCN(C(=O)CCCc3nn4cc(C)cc4c(=O)[nH]3)CC2)cc1 [Compound C38, 2-{4-[4-(4-Methoxy-benzoyl)-piperidin-1-yl]-4-oxo-butyl}-6-methyl-3H-pyrrolo[2,1-f][1,2,4]triazin-4-one]
EC50 [1]: 5.4e-09 M
IC50 [2, 5]: 1.1e-10 M
IC50 [3]: 0.28 nM
IC50 [4]: 2400 nM

COc1ccc(C(=O)C2CCN(C(=O)CCCc3nn4cc(F)cc4c(=O)[nH]3)CC2)cc1 [Compound C39, 6-Fluoro-2-{4-[4-(4-methoxy-benzoyl)-piperidin-1-yl]-4-oxo-butyl}-3H-pyrrolo[2,1-f][1,2,4]triazin-4-one]
EC50 [1]: 3.1e-09 M
IC50 [2, 5]: 3.7e-10 M
IC50 [3]: 0.18 nM
IC50 [4]: 2100 nM

COc1ccc(C(=O)C2CCN(C(=O)CCCc3nc4c(ccn4C)c(=O)[nH]3)CC2)cc1 [Compound C40, 2-{4-[4-(4-Methoxy-benzoyl)-piperidin-1-yl]-4-oxo-butyl}-7-methyl-3,7-dihydro-pyrrolo[2,3-d]pyrimidin-4-one]
EC50 [1]: 3.2e-09 M
IC50 [2, 5]: < 1e-10 M
IC50 [3]: 0.17 nM
IC50 [4]: 1600 nM

Cn1ncc2c(=O)[nH]c(CCCC(=O)N3CCC(c4cnc(N)c(C#N)c4)CC3)nc21 [Compound C44, 6-Amino-1′-[4-(1-methyl-4-oxo-4,5-dihydro-1H-pyrazolo[3,4-d]pyrimidin-6-yl)-butyryl]-1′,2′,3′,4′,5′,6′-hexahydro-[3,4′]bipyridinyl-5-carbonitrile]
EC50 [1]: 4e-07 M
IC50 [2, 5]: 9.7e-10 M
IC50 [3]: 1.6 nM
IC50 [4]: 18000 nM

O=C(CCCc1nc2c(c(=O)[nH]1)COCC2)N1CCC(c2nnc(-c3ccccc3)o2)CC1 [Compound C196, 2-{4-Oxo-4-[4-(5-phenyl-[1,3,4]oxadiazol-2-yl)-piperidin-1-yl]-butyl}-3,5,7,8-tetrahydro-pyrano[4,3-d]pyrimidin-4-one]
EC50 [1]: 2e-06 M
IC50 [2]: 5.7e-08 M
IC50 [4]: 6500 nM

Cc1ccc2c(=O)[nH]c(CCCC(=O)N3CCC(C(=O)c4cnn(C(C)C)c4)CC3)cn12 [Compound C211, 3-{4-[4-(1-Isopropyl-1H-pyrazole-4-carbonyl)-piperidin-1-yl]-4-oxo-butyl}-6-methyl-2H-pyrrolo[1,2-a]pyrazin-1-one]
EC50 [1]: 1.4e-08 M
IC50 [2]: 2.8e-10 M
IC50 [4]: 14000 nM

CC(C)n1cc(C(=O)C2CCN(C(=O)CCCc3cn4c(F)ccc4c(=O)[nH]3)CC2)cn1 [Compound C212, 6-Fluoro-3-{4-[4-(1-isopropyl-1H-pyrazole-4-carbonyl)-piperidin-1-yl]-4-oxo-butyl}-2H-pyrrolo[1,2-a]pyrazin-1-one]
IC50 [2, 5]: 1.3e-09 M
IC50 [3]: 0.39 nM
IC50 [4]: 5600 nM
